Measured values taken from PubChem BioAssay AID179 (DTP/NCI, 2004).
The source made the active and inactive calls.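 How the source made its calls: active means compounds giving half or more protection of infected cells from virus-caused growth loss, again on retest; inactive means the rest.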

System: CEM cells HIV-1 protection, formazan growth assay
Assay: NCI AIDS Antiviral Assay
Details: for IC50: measured here: growth of uninfected CEM cells
Method in brief: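 Five concentrations of each compound were applied to infected and uninfected human CEM cells. Protection from HIV-1 was judged from growth measured with a soluble formazan assay.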

| SMILES | EC50 | IC50 | outcome |
| --- | --- | --- | --- |
| C[C@]12OC[C@H](c3ccccc3)N1C(=O)C1[C@H]2CC12SCCS2 (stereo not given in full) | > 200 µM | 178 µM | – |
| Cc1c(Cl)cccc1NC(=O)C(=O)C1C(=O)CC(C)(C)CC1=O | > 741 µM | > 741 µM | – |
| Cc1nc2sccn2c1C(=O)NN | > 1260 µM | 912 µM | – |
| CC1SC(=O)SC1C (stereo not given) | > 1700 µM | > 1700 µM | – |
| CCCC/C=C(/CCCNC=O)[Si](C)(C)C | > 537 µM | > 537 µM | – |
| CCOc1ccc2nc3cc(N=Nc4ccc5c(N)c6cc(OCC)ccc6nc5c4)ccc3c(N)c2c1 | > 100 µM | 20.4 µM | – |
| OCC1OC(n2cnc3c(I)ncnc32)C(O)C1O (stereo not given) | – | – | inactive |
| C(/Cc1ccc2c(c1)OCO2)=N\NC1=NCCCN1 | > 200 µM | 38.9 µM | – |
| COc1cc(C2SCC(=O)N2c2ccc(-c3ccc(-n4c(-c5ccccc5)nc5ccccc5c4=O)cc3)cc2)ccc1O (stereo not given) | > 200 µM | 67.6 µM | – |
| CC/C(=C(\C#N)c1ccc(OCCN(CC)CC)cc1)c1ccc(OCCN(CC)CC)cc1 | > 200 µM | 1.86 µM | – |
| C1CSC2=C(S1)SC1=C(S2)SC(=C2SC3=C(SC4=C(SCCS4)S3)S2)S1 | > 200 µM | > 200 µM | – |
| Cc1ccc(S(=O)(=O)C2c3nc4ccccc4cc3-c3nc4ccccc4nc32)cc1 (stereo not given) | > 32.4 µM | > 32.4 µM | – |
| CCCCCC(/C=N/Nc1ccccc1)C(O)(C(F)(F)F)C(F)(F)F (stereo not given) | > 200 µM | 105 µM | – |
| COCn1c(=O)n(C)c(=O)c2c1nc1c(c(=O)n(C)c(=O)n1COC)[n+]2[O-] | > 200 µM | 5.25 µM | – |
| Cc1cccc(N2C(=O)C3c4[nH]c5ccccc5c4C4CCC(C(C)(C)C)CC4C3C2=O)c1 (stereo not given) | > 200 µM | 38.9 µM | – |
| CCCCCOCCCCCCCC(=O)O | > 200 µM | 89.1 µM | – |
| CCCNC(=O)c1nc(SC)sc1NC(=O)c1ccc(OC)cc1 | > 200 µM | > 200 µM | – |
| Fc1ccc(OCc2nc3cc(C(F)(F)F)ccc3nc2-c2ccccc2)cc1 | > 200 µM | 138 µM | – |
| N#CC(C(=O)CCC(=O)Nc1ccc(Cl)cc1)c1ccc(Cl)cc1 (stereo not given) | – | – | inactive |
| O=C1NC2(CCCCC2)C2CCCCC(O)C12 (stereo not given) | – | – | inactive |
| CCOC(=O)NC(=O)c1cn(CC(=O)NCC(=O)NCC(=O)NCCCN2CCN(CCCNC(=O)CNC(=O)CNC(=O)Cn3cc(C(=O)NC(=O)OCC)c(=O)[nH]c3=O)CC2)c(=O)[nH]c1=O | – | – | inactive |
| C[N+]1(C)CCC(OC(=O)C(O)(c2ccccc2)C2CCCC2)C1 (stereo not given) | > 200 µM | > 200 µM | – |

| SMILES | EC50 | IC50 | outcome |
| --- | --- | --- | --- |
| Cc1cc2oc(-c3ccccc3)c(C)c(=O)c2c2c1OC(C)(C)S2 | > 39.8 µM | > 39.8 µM | – |
| CNC(=O)NCCN1N=C(C)/C(=C\c2ccccc2)CC1=O | – | – | inactive |
| COC(=O)C/C(C(=O)OC)=C1\CCC2=C1N1CCCC1C2(CC(=O)OC)C(=O)OC (stereo not given) | > 162 µM | > 162 µM | – |
| Cc1ccc2c(c1)CNc1ccc(C)cc1CN2 | – | – | inactive |
| COc1ccc(NC(=S)Nc2ccccn2)cc1 | > 200 µM | > 200 µM | – |
| CC#N.CC#N.COC(=O)[C@@H]1CN(C(=O)c2ccccc2)C(=O)[N-]1.COC(=O)[C@@H]1CN(C(=O)c2ccccc2)C(=O)[N-]1.COC(=O)[C@@H]1CN(C(=O)c2ccccc2)C(=O)[N-]1.COC(=O)[C@@H]1CN(C(=O)c2ccccc2)C(=O)[N-]1.[Rh+2].[Rh+2] | 10.7 µM | 87.1 µM | – |
| CCCCCCSCC(NC(=O)CCC(N)C(=O)O)C(=O)NCC(=O)O (stereo not given) | > 24 µM | > 24 µM | – |
| S=c1nc2[nH]c3ccc(Br)cc3c2n[nH]1 | > 200 µM | 27.5 µM | – |
| Cc1cn([C@H]2C[C@@H](N3C(=O)c4ccccc4C3=O)[C@@H](CO[Si](C)(C)C(C)(C)C)O2)c(=O)[nH]c1=O | > 200 µM | 151 µM | – |
| COc1ccc2c(c1OC)[C@]13CCCC[C@@H]1[C@H](C2)N(C)CC3 | – | – | inactive |
| COc1cc(O)c2cc1Oc1ccc(cc1)CC1c3cc(c(OC)cc3CCN1C)Oc1c(OC)c(OC)c(OC)c3c1[C@H](C2)N(C)CC3 (stereo not given in full) | – | – | inactive |
| CC(C)=CC1CC(=[N+]=[N-])C(=O)C1(C)C (stereo not given) | > 186 µM | > 186 µM | – |
| C/C(=N\NC(N)=S)C(CN(CC(C)C)CC(C)C)C(=O)Nc1ccc(C)cc1C (stereo not given) | > 85.1 µM | > 85.1 µM | – |
| Cc1ccc(NC(=O)CCc2cc(C(C)(C)C)nc(NC#N)n2)cc1C | – | – | inactive |
| NC(=O)N/N=C(\CC1OC(=O)c2ccccc21)c1ccc([N+](=O)[O-])cc1 (stereo not given) | – | – | inactive |
| CC(=O)N1C(=O)CC23c4cccc([N+](=O)[O-])c4C(=O)N2CCCN13 (stereo not given) | > 398 µM | > 398 µM | – |
| Nc1nc(Cl)c(C=O)c(NCC2(CO)CC(CCc3ccccc3)C2)n1 (stereo not given) | > 200 µM | 3.98 µM | – |
| O=C(NCCCN1CCCCCC1)C(c1ccccc1)C1CCCCC1 (stereo not given) | > 200 µM | 36.3 µM | – |
| COC(=O)CCc1ccc2c(c1)CCC2 | > 200 µM | > 200 µM | – |
| OCC1OC(n2cnc3c2NC=NCC3O)C(Cl)C1O (stereo not given) | > 295 µM | > 295 µM | – |
| O=[N+]([O-])C(=C(c1ccccc1)c1ccccc1)[N+](=O)[O-] | – | – | inactive |
| O=C1OCC/C1=C\c1ccc2c(c1)OCO2 | > 45.7 µM | > 45.7 µM | – |

| SMILES | EC50 | IC50 | outcome |
| --- | --- | --- | --- |
| CC(O)C(C(=O)O)N(CC1(O)OCC(O)C(O)C1O)N=O (stereo not given) | – | – | inactive |
| COc1ccc(/C=C/c2nc3ccccc3nc2/C=C/c2ccc(OC)c(OC)c2)cc1OC | > 100 µM | > 100 µM | – |
| CN=c1nc2sc3c(c2c(NC(=S)NC)s1)CCCC3 | 77.6 µM | > 200 µM | – |
| O=S(=O)(Cc1ccccc1)SCc1ccccc1 | > 79.4 µM | 6.31 µM | – |
| O=C(N/N=C\c1ccccc1)c1ccccc1Nc1ccccc1C(=O)N/N=C/c1ccccc1 | 26.9 µM | > 200 µM | – |
| Cc1ccc(S(=O)(=O)NN=C2CCCCCCCCCCC2)cc1 | > 200 µM | > 200 µM | – |
| COc1ccc(/C=C2\CSC(=O)NC2=O)cc1OC | > 891 µM | 240 µM | – |
| COc1ccc([C@@]23Oc4cc(OC)cc(OC)c4[C@]2(O)[C@H](O)[C@H](C(=O)N(C)C)[C@H]3c2ccccc2)cc1 | > 200 µM | 0.0631 µM | – |
| CC(SSc1ccc(C(C)(C)C)cc1)c1ccccc1 (stereo not given) | > 200 µM | 8.51 µM | – |
| CCN(CC)CC(C(C)=O)C(c1ccccc1)c1c(O)c2ccccc2oc1=O (stereo not given) | > 43.7 µM | > 43.7 µM | – |
| CCOC(=O)C1Sc2c(c(=O)n(C)c3ccccc23)C1=O (stereo not given) | > 16.6 µM | 12 µM | – |
| CS(=O)(=O)NC1C(=O)c2ccccc2OC1c1ccccc1 (stereo not given) | > 200 µM | > 200 µM | – |
| COC1C2CC3C4(CCC5C6(C)CCCC53C(C14)N(C)C6)CC21CCC23C4C=C5C6=C(CCC5(CC42)C3O1)C1(C)CC(C6)CN(C)C1 (stereo not given) | 0.38 µM | 18.6 µM | – |
| CC1CN=C(N(C)C(=O)Nc2ccc(Cl)c(Cl)c2)S1 (stereo not given) | > 200 µM | 37.2 µM | – |
| N#C[C@](CO)(NC(=O)OCc1ccccc1)C(F)F | > 200 µM | > 200 µM | – |
| COc1ccc(N2C(=O)C3c4[nH]c5ccc(OC)cc5c4C4CCC(c5ccccc5)CC4C3C2=O)cc1 (stereo not given) | > 100 µM | 67.6 µM | – |
| O=C(CCN(C(=O)O)S(=O)(=O)c1ccc(NC(=O)c2ccccc2)cc1)Nc1ccccc1 | > 537 µM | > 537 µM | – |
| Cc1ccc(C=C(C(=O)O)C(=O)O)cc1 | > 1200 µM | > 1200 µM | – |
| O=c1nc2sc3ccc4ccccc4c3n2[nH]c1=O | > 47.9 µM | > 47.9 µM | – |
| CC(=O)C(N)=NCc1ccccc1 | > 1410 µM | 1020 µM | – |
| CCOC(=O)Cc1nc(Cl)c2c(C)c(C)sc2n1 | > 174 µM | 38.9 µM | – |
| O=C(CCC1C(=O)NC(=S)NC1=O)c1ccc2ccccc2c1 | > 110 µM | > 110 µM | – |

| SMILES | EC50 | IC50 | outcome |
| --- | --- | --- | --- |
| CCn1c(=O)ccc2ccc(N(CCO)CCO)nc21 | > 200 µM | 151 µM | – |
| COc1ccc(OC)c(CCc2cc(OC)ccc2OC)c1 | > 200 µM | 1.26 µM | – |
| C=C1CCCCCCCCCCC12SCCCS2 | > 200 µM | > 200 µM | – |
| CCC[CH2][Sn]([CH2]CCC)([O]C(=O)c1nccnc1N)[O]C(=O)c1nccnc1N | > 51.3 µM | 0.288 µM | – |
| c1ccc(-n2cnnc2-c2nsc3ccccc23)cc1 | > 93.3 µM | > 93.3 µM | – |
| CC(C)(C)NC(=O)CCC(CC(=O)NC(C)(C)C)S(=O)(=O)O (stereo not given) | > 200 µM | > 200 µM | – |
| O=C1CCCC2=C1CC1=C(CCCC1=O)N2c1ccc(Cl)cc1 | > 200 µM | 105 µM | – |
| COC(=O)C1C(=O)C(C(=O)OC)C23C(C)CCC12C(C(=O)OC)C(=O)C3C(=O)OC (stereo not given) | > 46.8 µM | > 46.8 µM | – |
| Cc1cccc2c1Oc1cc(Cl)ccc1C2NC(=O)CCN1CCN(CCO)CC1 (stereo not given) | > 200 µM | 13.5 µM | – |
| COC(=O)c1ccccc1CC1Cc2ccc3c(c2C1=O)CCC3 (stereo not given) | > 200 µM | > 200 µM | – |
| COP(=O)(Cc1ccc(/C=C/C#N)o1)OC | > 200 µM | > 200 µM | – |
| O=S1(=O)COc2ccccc2-c2ncncc21 | 47.9 µM | > 200 µM | – |
| CN(C)c1ccc(/C=C/c2ccnc3c2ccc2ccccc23)cc1 | > 22.4 µM | 13.5 µM | – |
| O=c1cccc(-c2cccc(=O)[nH]2)[nH]1 | – | – | inactive |
| Cc1nc(-c2nc(C)c(C(=O)/C=C/c3ccc(N(C)C)cc3)s2)sc1C(=O)/C=C/c1ccc(N(C)C)cc1 | > 34.7 µM | > 34.7 µM | – |
| N=c1c2ccccc2nnn1-c1ccccc1[N+](=O)[O-] | – | – | inactive |
| Cc1ccc(NC(=O)OCC(COc2ccc(Cl)cc2)OC(=O)Nc2ccc(C)cc2)cc1 (stereo not given) | > 15.5 µM | > 15.5 µM | – |
| O=C1CN2Cc3c(sc4c3CCCC4)N=C2N1 | > 200 µM | 138 µM | – |
| COCN(COC)c1nc(CCC(Br)(Br)Br)nc(N(COC)COC)n1 | > 83.2 µM | 37.2 µM | – |
| COc1cccc(/C=C/c2cnc3ccccc3n2)c1OC | > 200 µM | 151 µM | – |
| CCCCCCCCCCN(CCCCCCCCCC)C(=O)COc1c2cc(C(C)(C)C)cc1Cc1cc(C(C)(C)C)cc(c1OCC(=O)N(CCCCCCCCCC)CCCCCCCCCC)Cc1cc(C(C)(C)C)cc(c1OCC(=O)N(CCCCCCCCCC)CCCCCCCCCC)Cc1cc(C(C)(C)C)cc(c1OCC(=O)N(CCCCCCCCCC)CCCCCCCCCC)C2 | > 50.1 µM | 3.39 µM | – |
